One experiment deals with T1, human FPR1 (Homo sapiens, UniProt P21462).
T1 sequence (P21462 1-350): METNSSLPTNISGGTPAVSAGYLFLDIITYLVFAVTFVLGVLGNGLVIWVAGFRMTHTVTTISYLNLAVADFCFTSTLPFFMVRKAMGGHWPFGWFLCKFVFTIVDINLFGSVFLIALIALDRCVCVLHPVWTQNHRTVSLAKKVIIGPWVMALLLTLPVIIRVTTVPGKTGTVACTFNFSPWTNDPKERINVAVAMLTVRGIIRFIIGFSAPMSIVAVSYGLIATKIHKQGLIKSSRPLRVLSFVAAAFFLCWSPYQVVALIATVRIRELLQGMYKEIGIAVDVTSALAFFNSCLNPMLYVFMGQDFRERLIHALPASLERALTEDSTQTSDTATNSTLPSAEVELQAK
The experiment is described as follows: FPR1 cyclic adenosine monophosphate (cAMP) assay. In kind it is cell-based. To be noted: CHO cells overexpressing human FPR1; forskolin 10 μM; inhibition of cAMP production; HTRF; read-out: hFPR1 cAMP2 EC50. Summed up:
(§1)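 CHO/hFPR1 4,000 cells/well, forskolin 10 μM final; CHO/hFPR2 2,000 cells/well, forskolin 5 μM final. IBMX 200 μM, DMSO 1%, DPBS + Ca/Mg + 0.1% BSA, 30 min rt. HTRF cAMP; 4-PL fit.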
On the technique in general: cAMP levels reflect the balance of adenylyl cyclase and phosphodiesterase activity.

Another experiment has as its target T2, human FPR2 (Homo sapiens, UniProt P25090).
T2 sequence (P25090 1-351): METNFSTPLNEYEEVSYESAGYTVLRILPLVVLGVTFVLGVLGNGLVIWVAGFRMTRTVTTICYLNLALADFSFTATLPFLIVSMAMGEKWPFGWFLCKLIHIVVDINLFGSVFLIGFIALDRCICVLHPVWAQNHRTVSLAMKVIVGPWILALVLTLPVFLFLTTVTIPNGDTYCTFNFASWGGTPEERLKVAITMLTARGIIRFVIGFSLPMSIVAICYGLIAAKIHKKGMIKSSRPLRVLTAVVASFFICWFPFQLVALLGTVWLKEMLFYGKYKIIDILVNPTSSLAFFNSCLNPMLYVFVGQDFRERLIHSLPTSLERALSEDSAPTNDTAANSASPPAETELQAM
Put plainly: FPR2 cyclic adenosine monophosphate (cAMP) assay. The note with it: CHO cells overexpressing human FPR2; forskolin 5 μM; inhibition of cAMP production; HTRF; read-out: hFPR2 cAMP2 EC50. The experiment is classed as cell-based. Summed up:
as §1

The source of these data is patent US12577206B2 (BRISTOL-MYERS SQUIBB COMPANY, priority 2020, dated 2026).

As for `Cn1c(-c2ccc(OC(F)F)cc2)c(NC(=O)c2ccc(OC(F)F)cc2)c(=O)n1-c1ncccc1C(F)(F)F` [Example 281, 4-(difluoromethoxy)-N-{5-[4-(difluoromethoxy)phenyl]-1-methyl-3-oxo-2-[3-(trifluoromethyl)pyridin-2-yl]-2,3-dihydro-1H-pyrazol-4-yl}benzamide], the EC50 on human FPR1 is 500 nM; on human FPR2 it was 18 nM.

Consider `COc1cc(F)c(-c2c(NC(=O)c3ccc(OC(F)F)cc3)c(=O)n(-c3nc(N4CCC(C)(O)C4)ccc3C(F)(F)F)n2C)c(F)c1` (stereo not drawn) [Example 282, N-[5-(2,6-difluoro-4-methoxyphenyl)-2-[6-(3-hydroxy-3-methylpyrrolidin-1-yl)-3-(trifluoromethyl)pyridin-2-yl]-1-methyl-3-oxo-2,3-dihydro-1H-pyrazol-4-yl]-4-(difluoromethoxy)benzamide], for which the EC50 stood at 2100 nM at human FPR1 and 2 nM at human FPR2.

On to `COc1cc(F)c(-c2c(NC(=O)c3ccc(OC(F)F)cc3)c(=O)n(-c3nc(NCC4(O)CC4)ccc3C(F)(F)F)n2C)c(F)c1` [Example 283, N-[5-(2,6-difluoro-4-methoxyphenyl)-2-(6-{[(1-hydroxycyclopropyl)methyl]amino}-3-(trifluoromethyl)pyridin-2-yl)-1-methyl-3-oxo-2,3-dihydro-1H-pyrazol-4-yl]-4-(difluoromethoxy)benzamide], for which the EC50 was > 10000 nM on human FPR1 and 1 nM on human FPR2.

Turning to `COc1cc(F)c(-c2c(NC(=O)c3ccc(OC(F)F)cc3)c(=O)n(-c3nc(N4CCC(C)(O)C4)ccc3C(F)(F)F)n2C)c(F)c1` (stereo not drawn) [Example 284, N-[5-(2,6-difluoro-4-methoxyphenyl)-2-[6-(3-hydroxy-3-methylpyrrolidin-1-yl)-3-(trifluoromethyl)pyridin-2-yl]-1-methyl-3-oxo-2,3-dihydro-1H-pyrazol-4-yl]-4-(difluoromethoxy)benzamide], the EC50 came out at 1800 nM on human FPR1 and 2 nM at human FPR2.

Take `COc1cc(F)c(-c2c(NC(=O)c3ccc(OC(F)F)cc3)c(=O)n(-c3nc(OCCO)ccc3C(F)(F)F)n2C)c(F)c1` [Example 285, N-[5-(2,6-difluoro-4-methoxyphenyl)-2-[6-(2-hydroxyethoxy)-3-(trifluoromethyl)pyridin-2-yl]-1-methyl-3-oxo-2,3-dihydro-1H-pyrazol-4-yl]-4-(difluoromethoxy)benzamide]: the EC50 at human FPR1 was > 10000 nM; at human FPR2, 2 nM.

Consider `CCOc1ccc(C(F)(F)F)c(-n2c(=O)c(NC(=O)c3ccc(OC(F)F)cc3)c(-c3c(F)cc(OC)cc3F)n2C)n1` [Example 286, N-[5-(2,6-difluoro-4-methoxyphenyl)-2-[6-ethoxy-3-(trifluoromethyl)pyridin-2-yl]-1-methyl-3-oxo-2,3-dihydro-1H-pyrazol-4-yl]-4-(difluoromethoxy)benzamide], for which the EC50 on human FPR1 is > 5000 nM; on human FPR2, 3 nM.

For the compound `COc1cc(F)c(-c2c(NC(=O)c3ccc(OC(F)F)cc3)c(=O)n(-c3nc(OCC4CC4)ccc3C(F)(F)F)n2C)c(F)c1` [Example 287, N-{2-[6-(cyclopropylmethoxy)-3-(trifluoromethyl)pyridin-2-yl]-5-(2,6-difluoro-4-methoxyphenyl)-1-methyl-3-oxo-2,3-dihydro-1H-pyrazol-4-yl}-4-(difluoromethoxy)benzamide], the EC50 is > 5000 nM at human FPR1 and 13 nM on human FPR2.

As for `COc1cc(F)c(-c2c(NC(=O)c3ccc(OC(F)F)cc3)c(=O)n(-c3nc(OCC(C)(C)O)ccc3C(F)(F)F)n2C)c(F)c1` [Example 288, N-[5-(2,6-difluoro-4-methoxyphenyl)-2-[6-(2-hydroxy-2-methylpropoxy)-3-(trifluoromethyl)pyridin-2-yl]-1-methyl-3-oxo-2,3-dihydro-1H-pyrazol-4-yl]-4-(difluoromethoxy)benzamide], the EC50 at human FPR1 was > 10000 nM; on human FPR2, 1 nM.

Regarding `COC(=O)COc1ccc(C(F)(F)F)c(-n2c(=O)c(NC(=O)c3ccc(OC(F)F)cc3)c(-c3c(F)cc(OC)cc3F)n2C)n1` [Example 289, methyl 2-({6-[3-(2,6-difluoro-4-methoxyphenyl)-4-[4-(difluoromethoxy)benzamido]-2-methyl-5-oxo-2,5-dihydro-1H-pyrazol-1-yl]-5-(trifluoromethyl)pyridin-2-yl}oxy)acetate], the EC50 at human FPR1 was > 10000 nM; at human FPR2, 4 nM.

Take `COc1cc(F)c(-c2c(NC(=O)c3ccc(OC(F)F)cc3)c(=O)n(-c3nc(NCC4(CO)CCC4)ccc3C(F)(F)F)n2C)c(F)c1` [Example 290, N-[5-(2,6-difluoro-4-methoxyphenyl)-2-[6-({[1-(hydroxymethyl)cyclobutyl]-methyl}amino)-3-(trifluoromethyl)pyridin-2-yl]-1-methyl-3-oxo-2,3-dihydro-1H-pyrazol-4-yl]-4-(difluoromethoxy)benzamide]: the EC50 is > 10000 nM on human FPR1 and 1 nM at human FPR2.

As for `COc1cc(F)c(-c2c(NC(=O)c3ccc(OC(F)F)cc3)c(=O)n(-c3nc(C(C)(C)O)ccc3C#N)n2C)c(F)c1` [Example 291, N-{2-[3-cyano-6-(2-hydroxypropan-2-yl)pyridin-2-yl]-5-(2,6-difluoro-4-methoxyphenyl)-1-methyl-3-oxo-2,3-dihydro-1H-pyrazol-4-yl}-4-(difluoromethoxy)benzamide], the EC50 on human FPR1 is > 10000 nM; on human FPR2, 2 nM.

Take `COc1cc(F)c(-c2c(NC(=O)c3ccc(OC(F)F)cc3)c(=O)n(-c3nc(N4CC[C@@H](CO)C4)ccc3C(F)(F)F)n2C)c(F)c1` [Example 292, N-[5-(2,6-difluoro-4-methoxyphenyl)-2-{6-[(3R)-3-(hydroxymethyl)pyrrolidin-1-yl]-3-(trifluoromethyl)pyridin-2-yl}-1-methyl-3-oxo-2,3-dihydro-1H-pyrazol-4-yl]-4-(difluoromethoxy)benzamide]: the EC50 at human FPR1 stood at 4100 nM; on human FPR2, 2 nM.

As to `COc1ccc(-c2c(NC(=O)c3ccc(OC(F)F)cc3)c(=O)n(-c3ncccc3C(F)(F)F)n2C)cc1F` [Example 293, 4-(difluoromethoxy)-N-[5-(3-fluoro-4-methoxyphenyl)-1-methyl-3-oxo-2-[3-(trifluoromethyl)pyridin-2-yl]-2,3-dihydro-1H-pyrazol-4-yl]benzamide], the values for the EC50 on human FPR1 and at human FPR2 were 1200 nM and 9 nM, respectively.

On to `COc1ccc(-c2c(NC(=O)c3ccc(OC(F)F)cc3)c(=O)n(-c3ncccc3Cl)n2C)cc1F` [Example 294, N-[2-(3-chloropyridin-2-yl)-5-(3-fluoro-4-methoxyphenyl)-1-methyl-3-oxo-2,3-dihydro-1H-pyrazol-4-yl]-4-(difluoromethoxy)benzamide], for which the values for the EC50 at human FPR1 and at human FPR2 were 1400 nM and 32 nM, respectively.

`COc1ccc(-c2c(NC(=O)c3ccc(OC(F)F)cc3)c(=O)n(-c3nc(Cl)ccc3C(F)(F)F)n2C)c(F)c1` [Example 295, N-{2-[6-chloro-3-(trifluoromethyl)pyridin-2-yl]-5-(2-fluoro-4-methoxyphenyl)-1-methyl-3-oxo-2,3-dihydro-1H-pyrazol-4-yl}-4-(difluoromethoxy)benzamide]: the EC50 at human FPR1 came to 1500 nM; on human FPR2 it was 1 nM.

Turning to `COc1cc(O)c(-c2c(NC(=O)c3ccc(OC(F)F)cc3)c(=O)n(-c3nc(Cl)ccc3Cl)n2C)c(F)c1` [Example 296, N-[2-(3,6-dichloropyridin-2-yl)-5-(2-fluoro-6-hydroxy-4-methoxyphenyl)-1-methyl-3-oxo-2,3-dihydro-1H-pyrazol-4-yl]-4-(difluoromethoxy)benzamide], the half-maximal effective concentration (EC50) on human FPR1 is > 10000 nM; on human FPR2, 33 nM.

Take `COc1cc(F)c(-c2c(NC(=O)c3ccc(OC(F)F)cc3)c(=O)n(-c3nc(N4CCCC4=O)ccc3C(F)(F)F)n2C)c(F)c1` [Example 297, N-[5-(2,6-difluoro-4-methoxyphenyl)-1-methyl-3-oxo-2-[6-(2-oxopyrrolidin-1-yl)-3-(tifluoromethyl)pyridin-2-yl]-2,3-dihydro-1H-pyrazol-4-yl]-4-(difluoromethoxy)benzamide]: the EC50 at human FPR1 was determined as 380 nM; on human FPR2, 2 nM.

As to `COc1cc(F)c(-c2c(NC(=O)c3ccc(OC(F)F)cc3)c(=O)n(-c3nc(OCC(C)(C)O)ccc3Cl)n2C)c(F)c1` [Example 298, N-{2-[3-chloro-6-(2-hydroxy-2-methylpropoxy)pyridin-2-yl]-5-(2,6-difluoro-4-methoxyphenyl)-1-methyl-3-oxo-2,3-dihydro-1H-pyrazol-4-yl}-4-(difluoromethoxy)benzamide], the values for the EC50 at human FPR1 and on human FPR2 were 440 nM and 14 nM, respectively.

What is called EC50 is the concentration needed to bring the measured effect to its halfway point.
